In patent US4812469A, “Acetamides derived from 2,3-dihydro-3-phenyl-2-benzofuranone” (Adir Et Cie, priority 1987, dated 1989):
Counter-ions that a name gives are not always drawn. Like-named read-outs stand apart in the source and are kept apart here.

Legend:
[1] = test system: tissue energy-rich compounds (ATP, ADP, AMP) of the brain; assay: Acute normobaric hypoxia in rats, brain tissue energy-rich compounds (ATP level and energy content); type: in vivo, rats (male Fischer 344); conditions: for % inhibition of the effects of hypoxia: ATP / % inhibition of the effects of hypoxia: EC (energy content): 3% oxygen for 2 minutes
Experimental: (§1) The compounds of the present invention were tested in respect of their capacity to prolong the survival of cerebral tissue during acute hypoxia in mice, or to maintain the level of tissue energy-rich compounds in rats subjected to a fall in the oxygen supply [Pharmacology of Cerebral Ischemia, ([…]) p. 334-339 Elsevier Science Publishers B.V., J. Krieglstein ed.]. […] Forsch. Drug Res. (1986), 36 II No. 9, p. 1314-1320].
Whereas the control rats breathe a gaseous mixture containing 21% of oxygen and 79% of nitrogen, the rats subjected to hypoxia breath a mixture of 3% oxygen and 97% nitrogen for 2 minutes.
At the end of the hypoxic period, the animals are rapidly sacrificed by total immersion in liquid nitrogen. The frozen brain is removed and the energy-rich compounds (ATP, ADP, AMP) are extracted and assayed by the luciferin luminescence method.
The tissue energy content (EC) is calculated according to ATKINSON's formula: [formula]

[2] = test system: survival of cerebral tissue during acute hypoxia; assay: Acute hypobaric hypoxia in mice, survival time of the brain (final respiratory gasp); type: in vivo, mice (male CD1)
Experimental: as §1
The survival of the brain is assessed by measuring the time at which the final respiratory gasp is observed.
The survival time of a treated batch is compared with that of a control batch receiving only the solvent.

[3] = Mus musculus, ip, 30 mg/kg I.P., 30 minutes before hypoxia (160 mbar), mice, vs control batch, read-out: Percentage increase in the survival time
[4] = Mus musculus, ip, 100 mg/kg I.P., 30 minutes before hypoxia (160 mbar), mice, vs control batch, read-out: Percentage increase in the survival time
[5] = Mus musculus, ip, read-out: Percentage increase in the survival time
[6] = 100 mg/kg I.P., listed as pyritinol

For NC(=O)Cc1ccc2c(c1)C(c1ccccc1)C(=O)O2 (centres unmarked) [Example 1, 2-(2,3-Dihydro-2-oxo-3-phenyl-5-benzofuranyl)acetamide], which “% inhibition of the effects of hypoxia: ATP” value ([1]; 30 mg/kg I.P.) is on record?
The value was 64.6%.

And the “% inhibition of the effects of hypoxia: EC (energy content)” value ([1]; 30 mg/kg I.P.)?
The value was 66%.

What about the “effect on the ATP level and the energy content (in words)” value ([1]; 30 mg/kg, compared with meclofenoxate 300 mg/kg) of the same molecule?
The value was “Such an effect is observed with a dose of 30 mg/kg”.

And the ILS at 3 mg/kg ([2]; Mus musculus, ip, 3 mg/kg I.P., 30 minutes before hypoxia (160 mbar), mice, vs control batch, read-out: Percentage increase in the survival time)?
The ILS at 3 mg/kg was 24%.

And the ILS at 30 mg/kg [2, 3]?
The ILS at 30 mg/kg was 46%.

And the ILS at 100 mg/kg [2, 4]?
Its ILS at 100 mg/kg is 170%.

Which results are given for O=C1Oc2ccc(CC(=O)N3CCN(c4ccc(C(F)(F)F)cn4)CC3)cc2C1c1ccccc1 (centres unmarked) [Example 3, 2-(2,3-Dihydro-2-oxo-3-phenyl-5-benzofuranyl)-1-[4-(5-trifluoromethyl-2-pyridyl)piperazinyl]-1-oxoethane]?
ILS at 30 mg/kg [2, 3]: 36%; ILS at 100 mg/kg [2, 4]: 57%

O=C1Oc2ccc(CC(=O)N3CCN(Cc4ccc5c(c4)OCO5)CC3)cc2C1c1ccccc1 (centres unmarked) [Example 4] was tested. Which ILS at 3 mg/kg [2, 5] did it give?
Its ILS at 3 mg/kg is 43%.

And the ILS at 10 mg/kg [2, 5]?
The ILS at 10 mg/kg was 49%.

What about the ILS at 30 mg/kg [2, 5] of the same molecule?
Its ILS at 30 mg/kg is 54%.

And the ILS at 100 mg/kg [2, 5]?
The ILS at 100 mg/kg was 133%.

How did the ILS at 100 mg/kg [2, 5] turn out when CN1CCN(C(=O)Cc2ccc3c(c2)C(c2ccccc2)C(=O)O3)CC1 (centres unmarked) [Example 5, 2-(2,3-Dihydro-2-oxo-3-phenyl-5-benzofuranyl)-1-(4-methylpiperazinyl)-1-oxoethane tartrate] was run?
The ILS at 100 mg/kg was 111%.

Which ILS at 100 mg/kg [2, 4] does the source give for NC(=O)Cc1cccc2c1OC(=O)C2c1ccccc1 (centres unmarked) [Example 8, 2-(2,3-Dihydro-2-oxo-3-phenyl-7-benzofuranyl)acetamide] here?
The ILS at 100 mg/kg was 13%.

NC(=O)Cc1cc(Cl)cc2c1OC(=O)C2c1ccccc1 (centres unmarked) [Example 9, 2-(5-Chloro-2,3-dihydro-2-oxo-3-phenyl-7-benzofuranyl)acetamide] was tested. Which ILS at 100 mg/kg [2, 4] did it give?
The ILS at 100 mg/kg was 23%.

CN(C)CCOC(=O)COc1ccc(Cl)cc1 [Meclofenoxate, meclofenoxate, reference compound] was tested. Which “% inhibition of the effects of hypoxia: ATP” value ([1]; 300 mg/kg I.P.) did it give?
Its value is 59.7%.

And the “% inhibition of the effects of hypoxia: EC (energy content)” value ([1]; 300 mg/kg I.P.)?
The value was 69.6%.

What about the ILS at 30 mg/kg [2, 5] of the same molecule?
Its ILS at 30 mg/kg is 4%.

And the ILS at 100 mg/kg [2, 5]?
The ILS at 100 mg/kg was 22%.

With NC(=O)CN1CCCC1=O [Piracetam, piracetam, reference compound] as the molecule, how does the ILS at 100 mg/kg [2, 4] read?
Its ILS at 100 mg/kg is 11%.

Which results are given for Cc1ncc(CSSCc2cnc(C)c(O)c2CO)c(CO)c1O [Pyritinol, pyritinol]?
% inhibition of the effects of hypoxia: ATP ([1]; 30 mg/kg I.P.): 11.1%; % inhibition of the effects of hypoxia: EC (energy content) ([1]; 30 mg/kg I.P.): 16.6%; % inhibition of the effects of hypoxia: ATP ([1]; 100 mg/kg I.P.): 23.3%; % inhibition of the effects of hypoxia: EC (energy content) ([1]; 100 mg/kg I.P.): 35.2%; % inhibition of the effects of hypoxia: ATP [1, 6]: 23%; % inhibition of the effects of hypoxia: EC (energy content) [1, 6]: 35%; significance of the protection (brain survival time) ([2]; 100 mg/kg, mice, p<0.05): significant; ILS at 30 mg/kg [2, 3]: 13%; ILS at 100 mg/kg [2, 4]: 27%
